Data: patent US9511112B2, “Antibacterial composition for topical use” (GENERAL TOPICS S.r.l., priority 2012, dated 2016)
Where a name gives a salt, the structure may show the parent alone.

Tested on: bacterial population
Test: Microbiocidal activity by the same methods, triethyl citrate alone versus composition
Format: cell-based
Settings: 4.5 w/w % in water q.s. to 100 w/w %, without the Peptide

CCOC(=O)CC(O)(CC(=O)OCC)C(=O)OCC [triethyl citrate, triethyl-2-hydroxypropane-1,2,3-tricarboxylate]
survival of the bacterial population: 25%
